Assay results taken from patent US4512986A, “Progrestationally active steroids” (priority 1983, dated 1985).

Tests used:
[1] = target: T1, Cytosol Progesterone Receptor of the Estrogen-primed Immature Rabbit Uterus (Oryctolagus cuniculus, UniProt P06186); experiment: Relative binding affinity for progesterone receptor (competition with 3H-progesterone); set-up: species or system rabbit (New Zealand White); conditions: for RBA: 16-18 hour incubation, progesterone = 100
T1 construct: cytosol progesterone receptor of the estrogen-primed immature rabbit uterus; tissue Dutchland Laboratories, Inc., Denver, Pa (animals); host or cells: uterus cytosol of estradiol-treated immature female New Zealand White rabbits
T1 sequence (P06186 1-930): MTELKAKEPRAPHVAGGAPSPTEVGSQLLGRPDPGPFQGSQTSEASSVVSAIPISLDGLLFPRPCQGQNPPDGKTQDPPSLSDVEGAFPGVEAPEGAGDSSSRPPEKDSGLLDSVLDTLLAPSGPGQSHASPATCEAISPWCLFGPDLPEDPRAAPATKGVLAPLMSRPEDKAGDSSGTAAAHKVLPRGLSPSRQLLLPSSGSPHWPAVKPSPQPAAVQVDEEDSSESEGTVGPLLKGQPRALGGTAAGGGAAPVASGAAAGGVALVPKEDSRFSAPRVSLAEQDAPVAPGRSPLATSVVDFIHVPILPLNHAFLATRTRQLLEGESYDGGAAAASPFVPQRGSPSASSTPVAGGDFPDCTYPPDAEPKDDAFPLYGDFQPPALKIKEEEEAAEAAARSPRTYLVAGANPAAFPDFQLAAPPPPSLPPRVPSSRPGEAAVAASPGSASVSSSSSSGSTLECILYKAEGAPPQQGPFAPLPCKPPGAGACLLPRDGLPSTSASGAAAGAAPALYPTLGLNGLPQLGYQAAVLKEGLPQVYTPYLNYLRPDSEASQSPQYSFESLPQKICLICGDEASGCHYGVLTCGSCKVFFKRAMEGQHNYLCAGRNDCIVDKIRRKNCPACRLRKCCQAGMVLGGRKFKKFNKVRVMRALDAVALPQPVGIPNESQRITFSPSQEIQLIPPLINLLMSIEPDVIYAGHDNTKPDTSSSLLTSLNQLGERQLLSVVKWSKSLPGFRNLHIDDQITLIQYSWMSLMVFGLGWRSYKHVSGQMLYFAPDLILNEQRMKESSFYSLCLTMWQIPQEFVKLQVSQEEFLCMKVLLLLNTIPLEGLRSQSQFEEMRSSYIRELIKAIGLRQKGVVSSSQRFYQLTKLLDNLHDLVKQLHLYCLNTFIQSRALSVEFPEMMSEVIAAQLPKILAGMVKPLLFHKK
Description: RBA values recorded at 0° C. after short incubation times (e.g., 2 hr) mainly reflect differences in the association rate constants of the competing ligands, whereas those measured after long incubation times (e.g., 16 to 24 hr) and/or higher temperatures predominantly are influenced by differences in the dissociation rate constants of the competing ligands. RBA's determined after short incubation times primarily reflect the association of the competitor compared to the natural hormone. Conversely, RBA's measured after long incubation times reflect the dissociation rate of the competitor compared to the natural hormone.
The assay components are combined, allowed to equilibrate, and unbound radioactivity removed by charcoal adsorption.
Animal species. Immature female New Zealand White rabbits weighing 0.8 to 1.0 kg (Dutchland Laboratories, Inc., Denver, Pa).
Pretreatment. Subcutaneous treatment with 15 μg 17β-estradiol/0.6 ml sesame oil each morning (0830 to 0930 hr) for three days. Animals sacrificed 24 hr after final injection.
Tissue. Uterus; each uterus weighed about 1.0 g and two or three uteri were pooled for each assay.
Buffer. (A) 0.01M TES, pH 7.4, 1 mM EDTA, 0.012M thioglycerol and 30% glycerol for cytosol preparation and ^3 H-steroid, unlabeled hormone and compound solutions. (B) 0.01M TES, pH 7.4, 1 mM EDTA and 0.012M thioglycerol for charcoal solution.
Homogenization. Five or six 5-second bursts with 30 second cooling periods between bursts using Brinkman Polytron Pt. 10 at 3.5 rheostat setting.
Temperature. 0°-4° C. for all steps.
Centrifugation. 45,000 rpm for 1 hr, 50 Ti rotor, Beckman L8-80 ultracentrifuge.
Incubation. 16-18 hr at 4°-6° C.
Concentations. 1×10^-10 M to 1×10^-5 M (7 concentrations).
Method. Charcoal adsorption method used to remove unbound radioactivity. Five-tenths ml of dextran-coated charcoal (0.5% Norit A and 0.05% dextran T-70) added to all tubes except total radioactivity tubes (0.5 ml buffer [B] added), tubes vortexed 3-5 sec, allowed to sit for 10 minutes and centrifuged 10 minutes at 2000 rpm in Beckman TJ-6 centrifuge at 0°-4° C.
Data Interpretation. […] The relative binding affinity (RBA) of each compound was calculated by using the following equation. [formula] where

[2] = test system: uterine endometrium of estrone-primed immature rabbits; experiment: Clauberg assay (progestational activity, McPhail); type: in vivo, rabbit (New Zealand White); conditions: for McPhail Index (0-4) (X ± S.D.): 0 none, 4 maximal
[3] = test system: androgen target organs of castrate immature male rats; experiment: Anti-androgenic activity in the castrate immature rat assay; type: in vivo; conditions: testosterone alone sc
Description: The oral anti-androgenic activity of 6-methyl-6-dehydro-17α-ethynylprogesterone was evaluated in the castrate immature male rat assay [Lerner et al., Proc. Soc. […] The assay is briefly described in the footnotes to Table 11.
*This assay employs castrate immature rats. For methods refer to Lerner,
L. J., A. Bianchi and A. Borman, Proc. Soc.
**Groups of rats (7/group) were given daily injections of 0.3 ml sesame
oil (control) or compound (in 0.3 ml sesame oil) for 7 days. Some groups
also concurrently received progestational compounds by the sc or oral
route of administration in order to evaluate antiandrogenic activity. One
day after the final doses, the animals were sacrificed and the androgen
target organs indicated were weighed.
***Statistically significant (p < 0.05) lower organ weights versus the
testosterone, sc, (400 μg/rat/day) group as determined by Analysis of
Variance coupled with Duncan's Multiple Range Test.

In the case of `CC(=O)[C@H]1CC[C@H]2[C@@H]3C[C@H](C)C4=CC(=O)CC[C@]4(C)[C@H]3CC[C@]12C` [6α-Methylprogesterone, reference compound], the RBA ([1]; Assay 4) is reported as 57%.
In the case of `C#C[C@]1(C(C)=O)CC[C@H]2[C@@H]3CC[C@H]4CC(=O)CC[C@@H]4[C@H]3CC[C@@]21C` [17α-Ethynyl-19-nor-5α-pregnane-3,20-dione], the RBA ([1]; Assay 4) is reported as 67% and the RBA ([1]; Assay 5) is reported as 66%.
With `C#C[C@]1(C(C)=O)CC[C@H]2[C@@H]3CCC4=CC(=O)CC[C@@H]4[C@H]3CC[C@@]21C` [17α-Ethynyl-19-norprogesterone, 17α-ethynyl-19-nor-4-pregnene-3,20-dione] the RBA ([1]; Assay 4) was 100%, the RBA ([1]; Assay 5) was 133% and the “progesterone receptor binding, in words” value ([1]; compared with progesterone) was “slightly greater than that of progesterone itself”. The “progestational potency relative to subcutaneous progesterone, in words” value ([2]; compound given orally, progesterone sc) was “roughly comparable to subcutaneously administered progesterone”, the “progestational potency relative to progesterone (sc)” value ([2]; compound given sc) was “about 100 times” and the “Uterine Weight (X ± S.D.)” value ([2]; oral, 50 μg/rabbit daily) was 1.41 ± 0.02 g. For the same molecule, the “McPhail Index (0-4) (X ± S.D.)” value ([2]; oral, 50 μg/rabbit daily) was 0.38 ± 0.27, the “Uterine Weight (X ± S.D.)” value ([2]; oral, 100 μg/rabbit daily) was 1.72 ± 0.36 g and the “McPhail Index (0-4) (X ± S.D.)” value ([2]; oral, 100 μg/rabbit daily) was 1.17 ± 1.10. The “Uterine Weight (X ± S.D.)” value ([2]; oral, 200 μg/rabbit daily) was 1.70 ± 0.33 g, the “McPhail Index (0-4) (X ± S.D.)” value ([2]; oral, 200 μg/rabbit daily) was 0.83 ± 0.72 and the “Uterine Weight (X ± S.D.)” value ([2]; oral, 400 μg/rabbit daily) was 3.40 ± 1.14 g. For the same molecule, the “McPhail Index (0-4) (X ± S.D.)” value ([2]; oral, 400 μg/rabbit daily) was 3.75 ± 0.10, the “Uterine Weight (X ± S.D.)” value ([2]; sc, 2.5 μg/rabbit daily) was 2.64 ± 0.22 g and the “McPhail Index (0-4) (X ± S.D.)” value ([2]; sc, 2.5 μg/rabbit daily) was 3.25 ± 0.41. The “Uterine Weight (X ± S.D.)” value ([2]; sc, 5 μg/rabbit daily) was 3.55 ± 0.54 g, the “McPhail Index (0-4) (X ± S.D.)” value ([2]; sc, 5 μg/rabbit daily) was 3.97 ± 0.05 and the “Uterine Weight (X ± S.D.)” value ([2]; sc, 10 μg/rabbit daily) was 4.57 ± 0.67 g. For the same molecule, the “McPhail Index (0-4) (X ± S.D.)” value ([2]; sc, 10 μg/rabbit daily) was 3.92 ± 0.12, the “Uterine Weight (X ± S.D.)” value ([2]; sc, 20 μg/rabbit daily) was 4.94 ± 0.87 g and the “McPhail Index (0-4) (X ± S.D.)” value ([2]; sc, 20 μg/rabbit daily) was 4.00 ± 0.00.
With `C[C@]12CC[C@H]3[C@@H](CCC4=CC(=O)CC[C@@]43C)[C@@H]1CC[C@@H]2O` [Testosterone] the “Levator Ani weight (X ± S.D.)” value ([3]; 25 μg/rat daily) was 36 ± 4 mg, the “Seminal Vesicles weight (X ± S.D.)” value ([3]; 25 μg/rat daily) was 23 ± 12 mg and the “Ventral Prostate weight (X ± S.D.)” value ([3]; 25 μg/rat daily) was 18 + 5 mg. The “Levator Ani weight (X ± S.D.)” value ([3]; 100 μg/rat daily) was 53 ± 6 mg, the “Seminal Vesicles weight (X ± S.D.)” value ([3]; 100 μg/rat daily) was 66 ± 6 mg and the “Ventral Prostate weight (X ± S.D.)” value ([3]; 100 μg/rat daily) was 35 ± 5 mg. The “Levator Ani weight (X ± S.D.)” value ([3]; 400 μg/rat daily) was 63 ± 14 mg, the “Seminal Vesicles weight (X ± S.D.)” value ([3]; 400 μg/rat daily) was 163 ± 43 mg and the “Ventral Prostate weight (X ± S.D.)” value ([3]; 400 μg/rat daily) was 70 ± 22 mg.
